Literature values, collected in US20020082283A1, “Nitrogen-containing compounds and their use as glycine transport inhibitors” (Gliatech, Inc., priority 2000, published 2002).

System: NMDA receptor
Settings: in vitro at concentrations at which clinical efficacy is seen

increase in NMDA receptor activity: ~40%
Compound: O=C(CCCN1CCC(O)(c2ccc(Cl)cc2)CC1)c1ccc(F)cc1 [haloperidol]
